Measurements: article PMC6332397, “Anti-Protozoal Activities of Cembrane-Type Diterpenes from Vietnamese Soft Corals” (Molecules, 2015)
Values joined by “and” are separate entries in the source; they are usually repeats but may differ in a detail not shown here. Equal entries are not always repeated. Where two headings read alike, the source gives them in different places.

What was measured:
[1] = Cytotoxicity assay against L6 cells; type: cell-based; conditions: rat skeletal myoblast L6, mean ± margin of deviation of two independent determinations
Procedure: Cytotoxicity was assessed using rat skeletal myoblasts (L6 cells) and a similar protocol as used for the Tbr assay. […] All following steps were according to the T. b. rhodesiense protocol (see Section 3.3. above).

[2] = tested on: T. b. rhodesiense STIB 900 bloodstream forms; assay: Anti-trypanosomal activity on T. brucei rhodesiense (Alamar blue); type: cell-based, Trypanosoma brucei rhodesiense
Procedure: Minimum Essential Medium with Earle’s salts (50.0 µL) supplemented with 0.2 mM 2-mercaptoethanol, 1.0 mM Na pyruvate and 15% heat-inactivated horse serum was added to each well of a 96-well microtiter plate. Serial drug dilutions of eleven 3-fold steps covering a range from 100 to 0.002 µM were prepared. Then 10^4 bloodstream forms of T. b. rhodesiense STIB 900 in 50.0 µL of medium were added to each well and the plate incubated at 37 °C under a 5% CO2 atmosphere for 72 h. Alamar blue solution (10.0 µL of a solution of 12.5 mg resazurin dissolved in 100 mL distilled water) were then added to each well and incubation continued for a further 2–4 h. The plate was then read in a Spectramax Gemini XS microplate fluorometer (Molecular Devices Corporation, Sunnyvale, CA, USA) using an excitation wavelength of 536 nm and emission wavelength of 588 nm. Fluorescence development was measured and expressed as percentage of the control. Data were transferred into the graphic programme Softmax Pro (Molecular Devices), which calculated IC50 values.

[3] = tested on: P. falciparum NF54 strain; assay: Antiplasmodial activity, [3H]-hypoxanthine incorporation assay; type: cell-based, Plasmodium falciparum
Procedure: Antiplasmodial activity was determined using the NF54 strain of P. falciparum (drug sensitive). A modification of the [^3H]-hypoxanthine incorporation assay was used. […] After 48 h of incubation at 37 °C in a reduced oxygen atmosphere, 0.5 μCi ^3H-hypoxanthine was added to each well. Cultures were incubated for a further 24 h before they were harvested onto glass-fiber filters and washed with distilled water. The radioactivity was counted using a Betaplate™ liquid scintillation counter (Wallac, Zurich, Switzerland). […] From the sigmoidal inhibition curves IC50 values were calculated. Assays were run in duplicate and repeated once.

[4] = tested on: L. donovani amastigotes (strain MHOM/ET/67/L82); assay: Antileishmanial activity on L. donovani (axenic amastigote assay); type: cell-based, Leishmania donovani; conditions: for IC50: 72 h, axenic amastigotes, mean ± margin of deviation of two independent determinations
Procedure: Fifty µL of SM medium at pH 5.4 supplemented with 10% heat-inactivated FBS, was added to each well of a 96-well microtiter plate. Serial drug dilutions were prepared covering a range from 100.0 to 0.002 µM. Then 10^5 axenically grown L. donovani amastigotes (strain MHOM/ET/67/L82) in 50.0 µL medium were added to each well and the plate incubated at 37 °C under a 5% CO2 atmosphere for 72 h. Resazurin solution (10.0 µL, 12.5 mg resazurin dissolved in 100 mL distilled water) were then added to each well and incubation continued for a further 2–4 h. The plate was then read in a Spectramax Gemini XS microplate fluorometer (Molecular Devices, Sunnyvale, CA, USA) using an excitation wavelength of 536 nm and emission wavelength of 588 nm. Fluorescence development was measured and expressed as percentage of the control. Data were transferred into the graphic programme Softmax Pro (Molecular Devices) which calculated IC50 values from the sigmoidal inhibition curves.

T. brucei = conditions: cited from earlier work
malarial parasite = tested on: malarial parasite; parameters: method as in PMID 21157686; conditions: cited from earlier work
[5] = L6 cells (rat skeletal myoblasts)
[6] = Trypanosoma brucei, 72 h; mean ± margin of deviation of two independent determinations; read-out: IC50 Values T. b. rhodesiense
[7] = Plasmodium falciparum, NF54, NF54 strain, mean ± margin of deviation of two independent determinations, read-out: IC50 Values P. falciparum
[8] = 72 h; mean ± margin of deviation of two independent determinations; read-out: IC50 Values T. b. rhodesiense
[9] = Plasmodium falciparum, NF54, read-out: IC50 Values P. falciparum

In the case of `Nc1nc(N)nc(Nc2ccc([As]3SCC(CO)S3)cc2)n1` (centres unmarked) [Melarsoprol, reference compound], the IC50 [1] is reported as 28.9 ± 9.3 µM and the IC50 ([2]; Trypanosoma brucei, 72 h, read-out: IC50 Values T. b. rhodesiense) is reported as 0.005 µM.

For `C=C1CCC2=C(C)C(=O)OC2C=C(C)CCC(O)C2(C)CCC1O2` (centres unmarked) [Compound 15, Crassumol G], the IC50 [1, 5] was 33.2 ± 13.5 µM, the “Activity against bloodstream forms of T. brucei (in words)” value (“Activity against bloodstream forms” below) [2] was “showed activity” and the IC50 [2, 6] was 12.2 ± 0.1 µM. For the same molecule, the IC50 [3, 7] was 7.57 ± 0.59 µM.

In the case of `CC1=CCCC(C)(O)C=CC(C(C)C)CCC(C)=CCC1` [Compound 2, (1R,4R,2E,7E,11E)-cembra-2,7,11-trien-4-ol], the IC50 [1, 5] is reported as 49.4 ± 5.2 µM, the “Activity against bloodstream forms” value [2] is reported as “showed activity” and the IC50 [2, 8] is reported as 1.14 ± 0.5 µM. The “Selectivity index, times more active against Tbr than against L6 cells” value (shortened to “Selectivity index, times more active”) ([2]; L6 vs Tbr) was 43, the IC50 [2, 6] was ≤ 1 µM and the IC50 [3, 7] was 14.8 ± 0.9 µM.

In the case of `C=C1CCC(C(C)C)C=CC(C)(O)CC=CC(C)(O)CCC1O` [Compound 16, (1S,2E,4S,6E,8S,11S)-2,6,12(20)-cembrantriene-4,8,11-triol], the IC50 [1, 5] is reported as 48.6 ± 3.45 µM, the “Activity against bloodstream forms” value [2] is reported as “showed activity” and the IC50 [2, 8] is reported as 0.65 ± 0.01 µM. For the same molecule, the “Selectivity index, times more active” value ([2]; L6 vs Tbr) was 75 and the IC50 [2, 6] was ≤ 1 µM.

In the case of `C=C(C)C1CC=C(C(=O)OC)CC(=O)CC(C)(O)C(O)C2=CC(C(=O)OC)=C(C1)O2` (centres unmarked) [Compound 17, Sinumaximol A], the IC50 [1] is reported as 45 ± 2.9 µM, the IC50 ([2]; Trypanosoma brucei; 72 h; mean ± margin of deviation of two independent determinations; read-out: IC50 Values T. b. rhodesiense) is reported as > 20 µM and the IC50 [3, 9] is reported as 7.2 ± 0.71 µM.

In the case of `CC1=C2CCC3(C)OC2(OC1)C1C3CCC(C)(O)C2CCC1(C)O2` (centres unmarked) [Compound 12, crassumol D], the IC50 [1, 5] is reported as 58.7 ± 1 µM, the “Activity against bloodstream forms” value [2] is reported as “showed activity” and the IC50 [2, 8] is reported as 0.61 ± 0.01 µM. The “Selectivity index, times more active” value ([2]; L6 vs Tbr) was 96 and the IC50 [2, 6] was ≤ 1 µM.

In the case of `C=C1CCC2(O)C(=C)COC2C=C(C)CCC(O)C2(C)CCC1O2` (centres unmarked) [Compound 13, crassumol E], the IC50 [1, 5] is reported as 43 ± 2.6 µM, the “Activity against bloodstream forms” value [2] is reported as “showed activity” and the IC50 [2, 8] is reported as 0.72 ± 0.04 µM. For the same molecule, the “Selectivity index, times more active” value ([2]; L6 vs Tbr) was 60, the IC50 [2, 6] was ≤ 1 µM and the IC50 [3, 7] was 7.43 ± 0.86 µM.

For `C/C1=C\[C@@H]2O[C@@H](O)[C@@]3(C)O[C@@]23CC/C(C)=C/CC[C@](C)(O)[C@@H](O)CC1` [Compound 6, Lobocrasol A], the IC50 [1, 5] was 56 ± 3.65 µM, the “Activity against bloodstream forms” value [2] was “showed activity” and the IC50 [2, 6] was 9.97 ± 0.64 µM. The “Antileishmanial activity (in words)” value [4] was “strongly and selectively active”, the IC50 ([4]; Leishmania donovani) was < 0.2 µM and the IC50 [4] was 0.18 ± 0.02 µM.

With `C/C1=C\[C@@H]2O[C@@H](O)[C@@]3(C)O[C@@]23CC/C(C)=C/CC[C@](C)(O)[C@H](O)CC1` [Compound 7, lobocrasol B] the “Antileishmanial activity (in words)” value [4] was “devoid of antileishmanial activity”.

With `C/C1=C\[C@@H]2O[C@@H](O)[C@@]3(C)O[C@@]23CC/C(C)=C/CC[C@@]2(C)O[C@H]2CC1` [Compound 10, laevigatol A] the IC50 [1, 5] was 28.8 ± 10.3 µM, the IC50 [2, 6] was > 20 µM and the “Selectivity index SI = IC50(L6)/IC50(parasite), P. falciparum” value ([3]; L6 vs Pf) was 9.52. For the same molecule, the IC50 ([3]; NF54 strain, mean ± margin of deviation of two independent determinations, read-out: IC50 Values P. falciparum) was < 5 µM and 3.02 µM and the IC50 [3, 7] was 3 µM.

With `COC(=O)C(C)C1=CC=C(C)CCC2OC2(C)CCC=C(C)CC1` (stereo not drawn) [Compound 1, 7S,8S-epoxy-1,3,11-cembratriene-16-oic methyl ester] the IC50 [1, 5] was > 54 µM, the “Activity against bloodstream forms” value [2] was “showed activity” and the IC50 [2, 8] was 1 ± 0.19 µM. The IC50 [2, 6] was ≤ 1 µM and the IC50 [3, 7] was 22.95 ± 0.15 µM.

With `C=C(C)C1CCC23OC2C(CC(C)(O)C=C2C=C(C(=O)OC)C(OC)(C1)O2)OC3=O` (centres unmarked) [Compound 18, Sinumaximol C] the IC50 [1, 5] was 28.7 ± 9.95 µM, the “Activity against bloodstream forms” value [2] was “showed activity” and the IC50 [2, 6] was 9.88 ± 1.93 µM.

For `CCN(CC)CCCC(C)Nc1ccnc2cc(Cl)ccc12` (centres unmarked) [Chloroquine, reference compound], the IC50 [1] was 120 ± 27.5 µM and the IC50 [3, 9] was 0.004 µM.

For `C=C1CO[C@H]2/C=C(\C)CC[C@@H]3O[C@]3(C)CC/C=C(\C)CC[C@@]12O` [Compound 11, laevigatol B], the “In vitro activity against T. brucei (in words)” value (T. brucei) is listed as “active”.

In the case of `C=C1CO[C@H]2/C=C(\C)CC[C@@H](O)[C@@](C)(O)C/C=C/[C@](C)(O)CC[C@@]12O` [Compound 8, lobocrasol C], the IC50 [1, 5] is reported as 40.5 ± 7.75 µM, the “Activity against bloodstream forms” value [2] is reported as “showed activity” and the IC50 [2, 6] is reported as 9.37 ± 0.74 µM. The “Antileishmanial activity (in words)” value [4] was “strongly and selectively active”, the IC50 ([4]; Leishmania donovani) was < 0.2 µM and the IC50 [4] was 0.17 ± 0.05 µM. The IC50 [3, 7] was 7.37 ± 0.35 µM.

For `C=C(C)C1CC(=O)CC2OC(C)(CC2=O)CC2C=C(C(=O)O2)C(OC)C1` (stereo not drawn) [Compound 21, 13-Epi-scabrolide C], the IC50 [1, 5] was 47.5 ± 6 µM, the “Activity against bloodstream forms” value [2] was “showed activity” and the IC50 [2, 6] was 11.8 ± 4.46 µM.

Molecule `CCCCCCCCCCCCCCCCOP(=O)([O-])OCC[N+](C)(C)C` [Miltefosine, reference compound] has an IC50 [1, 5] of 143 ± 35.3 µM and an IC50 ([4]; Leishmania donovani) of 0.14 ± 0.05 µM.

In the case of `C/C1=C\CC/C(C)=C/C[C@](O)(C(C)C)CC/C(C)=C/CC1` [serratol, reference compound], the “In vitro activity against T. brucei (in words)” value (T. brucei) is given as “also showed such activity” and the “Activity against the malarial parasite (in words)” value (malarial parasite) is given as “some activity”.
